Data published in patent US8835425B2, “Use of selective GABA A α5 negative allosteric modulators for the treatment of central nervous system conditions” (Hoffmann-La Roche Inc., priority 2010, dated 2014).
pKi: −log10 of the molar value. Like-named read-outs stand apart in the source and are kept apart here.

How the values were obtained:
[1] = biological target: T1, human GABA A α5β3γ2 (Homo sapiens, UniProt P18507+P31644); experiment: [3H]flumazenil competition binding, HEK293 cells expressing human α5β3γ2; parameters: expressed in transfected cells; host or cells: HEK293
[2] = biological target: human GABA A α3β3γ2 (Homo sapiens, UniProt P18507+P34903); experiment: [3H]flumazenil competition binding, HEK293 cells expressing human α3β3γ2; parameters: expressed in transfected cells; host or cells: HEK293; conditions: for hKi α3/hKi α5: binding selectivity ratio
[3] = biological target: human GABA A α1β2/3γ2 (Homo sapiens, UniProt P14867+P18507); experiment: Two-microelectrode voltage clamp, modulation of GABA EC10 response in Xenopus oocytes, α1β2/3γ2; type: cell-based; parameters: expressed in transfected cells; host or cells: Xenopus laevis oocytes; conditions: % change of EC10 GABA response at 3 μM or at 30×Ki if Ki below 0.1 μM
[4] = biological target: T1, human GABA A α5β3γ2; experiment: Two-microelectrode voltage clamp, modulation of GABA EC10 response in Xenopus oocytes, α5β3γ2; type: cell-based; parameters: expressed in transfected cells; host or cells: Xenopus laevis oocytes; conditions: % change of submaximal (EC10) response to GABA at 30×Ki
Procedure: Table 2b. […] Effect at human GABA A α5 receptors: % change of a submaximal (EC10) response to GABA determined at 30×Ki value from the flumazenil binding assay.
Subtype-selective effects were determined on cloned receptors expressed in Xenopus oocytes. Human recombinant GABA A receptors were expressed in Xenopus laevis oocytes. Current responses were evoked in two-microelectrode voltage-clamp condition by applying an EC10 of GABA before and during the co-application of the test compound. Response amplitudes in the presence of the test compound are expressed as percentage of the amplitudes before drug addition.

[5] = tested on: Ts65Dn and control mice; experiment: Exploratory activity: hole board; type: in vivo; conditions: 20 mg/kg p.o. chronic; for ABA index / Crossings / Number of Head-dippings / Rearings / Time exploring holes: hole board
Procedure: (§1) For mice studies, active pharmaceutical compounds of present invention were formulated in chocolate-milk (Puleva, Barcelona, Spain). Active pharmaceutical compounds of present invention or vehicle were administered p.o. at a dose of 20 mg/kg for six weeks. Their administration was prolonged during the 30 days of the behavioral assessment.
The hole board is a wooden box (32×32×30 cm) with four holes. The floor is divided into nine 10 cm squares. In a single 5 minute trial the number of explorations, the time spent exploring each hole, and overall activity in the apparatus were measured. A repetition index was also calculated (exploration of holes previously explored) as a function of the number of ABA alternations.

[6] = tested on: Ts65Dn and control mice; experiment: Spatial learning: Morris water maze; type: in vivo; conditions: 20 mg/kg p.o. chronic; for Ts65Dn mice performance in MWM acquisition sessions / control mice performance in MWM acquisition sessions: vs vehicle; for latency to reach the platform during cued sessions: in Ts65Dn but not in control mice
Procedure: as §1
To evaluate spatial learning the Morris Water Maze was used. The apparatus was a circular tank of 110 cm in diameter, full of water (22-24° C.) made opaque by the addition of powdered milk. Inside the tank, a platform was hidden 1 cm below the water level. Animals were tested at the end of the treatment period in 12 consecutive daily sessions: 8 acquisition sessions (platform submerged), followed by 4 cued sessions (platform visible). All trials were videotaped with a camera located 2 m above the water level. A SMART computerized tracking system (Panlab S. A., Barcelona, Spain) was used to analyze the mouse trajectories, measure escape latency, distance traveled, and swimming speed for each animal in each trial.
In the acquisition sessions (S1-S8), the platform was hidden 1 cm below the water level. From one daily session to the next, the platform was placed in a different location (E, SW, center, and NW); each position was used once every four consecutive daily sessions. Each of the 8 acquisition and 4 cued sessions (one session per day) consisted of four pairs of trials, 30-45 min apart. For each trial pair, the mice were randomly started from one of four positions (N, S, E, W), which was held constant for both trials. The first trial of a pair was terminated when the mouse located the platform or when 60 s had elapsed; the second trial commenced following a period of 20 s, during which the animal was allowed to stay on the platform. Several fixed cues outside of the maze were constantly visible from the pool.
During the cued sessions the platform was visible: the water level was 1 cm below the platform, and its position was indicated with a flag. Eight trials were performed during each session, following the same experimental procedure as in the acquisition sessions.

[7] = tested on: Ts65Dn and control mice; experiment: Motor coordination: rotarod; type: in vivo; conditions: mice of either genotype, 20 mg/kg p.o. chronic
Procedure: as §1
Motor coordination was evaluated using a rotarod device (Ugo Basile; Comerio, Italy), which consists of a 37-cm-long, 3-cm diameter plastic rod that rotates at different speeds. In a single session, 4 trials with a maximum duration of 60 s each were performed. In the first three tests, the rod was rotated at constant speeds of 5, 25 and 50 rpm, respectively. The last trial consisted of an acceleration cycle, in which the rod rotated progressively faster, and the animal had to adapt to the growing demands of the test. The length of time that each animal stayed on the rotarod was recorded.

[8] = tested on: hippocampal slices of Ts65Dn mice; experiment: Long term potentiation in hippocampal slices after chronic treatment; type: in vivo; conditions: 20 mg/kg p.o. for six weeks, vs control mice
Procedure: The effect of chronic administration of 8581 and R1 on LTP was evaluated in the Ts65Dn mouse model of Down syndrome. 8581, R1 (20 mg/kg p.o.) or vehicle was administered for six weeks. Mice were decapitated 1 hour after the last administration and the brains were rapidly removed. The hippocampi were dissected and 400-μm slices were cut with a tissue chopper. […] Field excitatory postsynaptic potentials (fEPSPs) were recorded from the CA1 stratum radiatum with a glass micropipette (1-4 MΩ) containing 2 M NaCl and evoked by stimulation of the Schaffer collaterals with insulated bipolar platin/iridium electrodes >500 μm away from the recording electrode. The stimulus strength was adjusted to evoke fEPSPs equal to 50% of the relative maximum amplitude without superimposed population spike. After stable baseline recordings (100 μs pulse-duration, 0.033 Hz), long term potentiation (LTP) was induced by TBS (10 trains of 5 pulses at 100 Hz and intervals of 200 ms). The duration of the stimulation pulses was doubled during the tetanus. After 20 min of baseline recording, LTP was induced and recorded for 80 min in each individual hippocampal slice. […] For the analysis, fEPSP slopes were expressed as a percentage of the baseline values recorded. Results from several slices were expressed as mean±SEM. […]

Row | SMILES | pKi [2] | hKi α3/hKi α5 [2] | Efficacy GABA A α1β2/3γ2 [3] [%] | Efficacy GABA A α5β3γ2 [4] [%] | hyperactivity (crossings) of Ts65Dn mice in hole board ([5]; Ts65Dn mice) | ABA index ([5]; Ts65Dn mice) | Crossings ([5]; Ts65Dn mice) | Number of Head-dippings ([5]; Ts65Dn mice) | Rearings ([5]; Ts65Dn mice) | Time exploring holes ([5]; Ts65Dn mice) | ABA index ([5]; control mice) | Crossings ([5]; control mice) | Number of Head-dippings ([5]; control mice) | Rearings ([5]; control mice) | Time exploring holes ([5]; control mice) | difference between Ts65Dn and control learning curves in MWM [6] | Ts65Dn mice performance in MWM acquisition sessions [6] | control mice performance in MWM acquisition sessions [6] | latency to reach the platform during cued sessions [6] | motor coordination in the rotarod [7] | further results
1 | FC(F)c1ncn2c1Cn1ncnc1-c1cc(Br)ccc1-2 [Compound 8581, 3-Bromo-10-difluoromethyl-9H-imidazo[1,5-a][1,2,4]triazolo[1,5-d][1,4]benzodiazepine] | 7.10 | 17 | −1 | −46 | reduced this hyperactivity | 3.89 | 106.11 | 18.22 | 20.67 | 26.28 | 2.64 | 73.27 | 14.82 | 17.73 | 30.43 | reduced | significantly improved Ts65Dn mice performance | did not significantly affect control mice performance | reduced the latency to reach the platform | not modified | pKi [1]: 8.34; normalization of ABA index of Ts65Dn mice ([5]; Ts65Dn mice): normalized; LTP induced in hippocampal slices of treated Ts65Dn animals [8]: not different from that induced in hippocampal slices of control mice
2 | Cc1onc(-c2ccc(F)cc2)c1COc1ccc(C(=O)N2CCS(=O)(=O)CC2)cn1 [Compound R1, (1,1-Dioxo-1,6-thiomorpholin-4-yl)-{6-[3-(4-fluoro-phenyl)-5-methyl-isoxazol-4-ylmethoxy]-pyridin-3-yl}-methanone] | 6.31 | 104 | −4 | −39 | reduced this hyperactivity | 4.25 | 93.19 | 20.50 | 13.19 | 37.58 | 4.06 | 72.13 | 16.13 | 13.86 | 28.28 | reduced | improved Ts65Dn mice cognition | did not significantly affect control mice performance | reduced the latency to reach the platform | not modified | pKi ([1]; [3H]flumazenil competition, human α5β3γ2, read-out: hKi α5): 8.33; LTP induced in hippocampal slices of treated Ts65Dn animals [8]: not different from that induced in hippocampal slices of control mice
